Experimental findings from US20210121438A1, “METHODS FOR TREATING OR PREVENTING CONFORMATION DISEASES AND METHODS FOR DRUG SCREENING” (GARAGE BRAIN SCIENCE CO., LTD, priority 2018, published 2021) are described below.

Where a SMILES comes first, the peptide text is derived from it. The star is where a group is joined. Cbz = O=C(OCc1ccccc1)*

Common to all, as to type: cell-based
Data set [1] concerns GFP-TDP-43-IIPLD inclusion-expressing 293T cells. The experiment in a line: TDP-43-IIPLD misfolded aggregates in transfected 293T cells (microscopy). How it is done: Cell Culture and Drug Treatment: 293T cells were used throughout the experimental studies. 293T cells were grown in Dulbecco's modified Eagle's medium (DMEM)/F12, which was supplemented with 10% fetal bovine serum, 1% penicillin/streptomycin and 1% L-glutamate. Primary cultures of rat hippocampal neurons were prepared from embryonic day 17 rat embryos as previously described by (Wang et al, TDP-43, the signature protein of FTLD-U, is a neuronal activity-responsive factor. J. Neurochem. 105, 79T-806 (2008)). All procedures for handling the rat were carried out in accordance with the guidelines approved by the Institutional Animal Care and Utilization Committee, Academia Sinica. Hippocampal cells were plated on poly-1-lysine-coated coverslides at low density (10,000 cells per cm2) and cultured in the neurobasal medium/B27 (Invitrogen). The 293T cells were transfected using the calcium phosphate protocol according to the manufacturer's instructions and as previously described by Wang et al. (Wang et al., ProcNatlAcadSci USA. 99, 13583-13588 (2002). All of the plasmid constructs were described in Wang et al., Nature Communication, 2012). 293T cells (1×10^5) were seeded in each well of a six-well plate and incubated overnight in a 37° C. incubator with 5% CO2. To determine the effects of off-pathway stabilizers on the reduction of pathological-like aggregates, the cells were treated with baicalein and EGCG for 12, 24, or 48 h with the indicated concentrations (25 or 50 μM).
GFP-TDP-43 pathological-like (GFP-TDP-43-IIPLD) inclusion-expressing 293T cells were treated with or without 50 μM baicalein for 12 h following microscopic analysis and Western blotting validation. […] (FIG. 2c).

A further data set addresses T1, TDP-43 polymers (Homo sapiens, UniProt Q13148).
T1 construct: endogenous in cells; host or cells: 293T
The experiment in a line: Western blotting of TDP-43 polymers in nuclear, cytosolic and urea fractions. The conditions noted are these: EGCG-treated cells. How it is done: Solubility Assay of TDP-43 and p53: Cells with or without transfection of TDP-43-FL or TDP-43-Q303P were lysed with RIPA buffer (50 mM Tris, 150 mM NaCl, 1 mM EDTA, 1% NP-40, pH 7.4), and the lysate was further fractionated by centrifugation at 16,000 g for 5 min at 4° C. The insoluble pellets were then dissolved in 8 M urea/50 mM Tris (pH 8.0). The proteins were identified by Western blotting using a polyclonal TDP-43 antibody or a monoclonal p53 antibody.
TDP-43 proteinopathies in FTLD/ALS with the VCP/97 mutation R155H have been characterized. The VCP/97 mutation R155H alters the functions of VCP/97, redistributes TDP-43 to the cytosol, and leads to form-insoluble aggregates of TDP-43.
On the technique in general: In western blotting, separated proteins are transferred to a membrane and probed.

Data set [2] relates to TDP-43-mediated CFTR exon 9 skipping. The experiment in a line: Alternative splicing assay (in vivo splicing, CFTR minigene). The conditions noted are these: EGCG. As for the experimental part:
Alternative Splicing Assay: TDP-43-mediated CFTR exon 9 skipping assays were performed as previously described. Briefly, cells were cotransfected with TDP-43 plasmid, hCF-(TG)13(T)5 minigenes and the indicated plasmids, including VCP/p97 wt, VCP/p97 QQ, HSPB1, lamin A or progeria, or HSPB1 siRNA. Total RNA of transfectanted cells was isolated by TRIzol reagent (Invitrogen), and RT-PCR was carried out by Superscript III (Invitrogen) using specific primers to amplify exons 8-10 of CFTR according to the manufacturer's protocol. The relative amounts of cDNA were validated on 1.3% agarose gels. […]

Another data set concerns four p53 strains. The experiment in a line: Cell viability of the four p53 strains under stress (MTT assay). From the text: Our clonally expanded system provided an excellent cellular model to precisely investigate the oncogenicity of strain-specific p53 amyloid conformations in vivo. We analyzed cell growth of the four p53 amyloid strains by examining cell cycle flow and counting doubling time (FIGS. 17a and 17b). […] In contrast to the toxic amyloids observed in neurodegenerative contexts, p53 amyloids appear to promote cell growth. Additionally, to assess the stress response, the four cell strains were challenged with spermidine and H2O2 (FIGS. 17c and 17d). Cell viability was impaired under all stress conditions. […] To further identify key pathophysiology pathways involved in tumorigenesis of p53 aggregates' gain-of-function, we performed a serial screen by western blotting and compared the expression of cancer-related proteins in the four strains. […] Additionally, a group of epigenetic regulators altered their expression in present of p53 aggregates. […] Together with the horizontal transmissibility shown in FIG. 16, the three endogenous p53 aggregates were able to switch into malignant cancer cells including activating EMT, increasing cancer stemness, and dramatically altering epigenetic regulators, and the strain-specific p53 amyloids can propagate oncogenic inheritance via a protein-based mechanism.
On the technique in general: Tetrazolium assays rely on reduction of a dye to a coloured formazan, in cell work by metabolically active cells.

Data set [3] relates to p53 aggregates in 293T cells. The experiment in a line: p53 aggregates in 293T cells / p53 strains (immunofluorescence with p53 antibody). As for the experimental part:
Immunohistochemistry: Fluorescence staining was performed as described previously (Wang et al., 2012). Cells were transfected with or without plasmids or siRNAs and grown for 24 to 48 hr. Cells were fixed with 3.7% paraformaldehyde in PBS at RT for 15 min and then permeabilized with 0.1% Triton X-100. The fixed cells were incubated with primary antibodies at RT for 2 hr followed by incubation with Cy2- or Cy3-labeled secondary antibodies (Molecular Probes). Slides were mounted using Vectashield DAPI H-1200 (Vector). Cellular fluorescence images were collected using an LSM710 META laser-scanning confocal microscope (Zeiss).
We observed a striking degree of heterogeneity among p53 aggregates in the cytosol of 293T cells by immunofluorescence with a p53 antibody, including long fibers (5-10 μm), short fibers (1.6-3.2 μm) and punctate aggregates (0.5-1 μm in diameter) (FIG. 16a, arrows). The length of the p53 fibers and p53 aggregates were analyzed (FIG. 16b). […] To determine whether these heterogeneous p53 amyloid patterns are inherited or are random conversions, we subcultured and isolated single colonies from heterogeneous pools of cells. […] We obtained four phenotypes shown in FIG. 16a, including long and short fibers, puncta, and diffuse nuclear staining, and these phenotypes were stably propagated (FIG. 16e). We termed these p53 phenotypes of the isolated strains as follows: p53 [L] (Long fibers), p53 [S] (Short fibers), p53 [P] (Puncta) and p53-NVA (No Visible Aggregates).
Additionally, we treated 293T cells with an Aβ amyloid disassembling agent, baicalein, following immunofluorescence staining with anti-p53 antibodies.

T1 sequence (Q13148 whole entry): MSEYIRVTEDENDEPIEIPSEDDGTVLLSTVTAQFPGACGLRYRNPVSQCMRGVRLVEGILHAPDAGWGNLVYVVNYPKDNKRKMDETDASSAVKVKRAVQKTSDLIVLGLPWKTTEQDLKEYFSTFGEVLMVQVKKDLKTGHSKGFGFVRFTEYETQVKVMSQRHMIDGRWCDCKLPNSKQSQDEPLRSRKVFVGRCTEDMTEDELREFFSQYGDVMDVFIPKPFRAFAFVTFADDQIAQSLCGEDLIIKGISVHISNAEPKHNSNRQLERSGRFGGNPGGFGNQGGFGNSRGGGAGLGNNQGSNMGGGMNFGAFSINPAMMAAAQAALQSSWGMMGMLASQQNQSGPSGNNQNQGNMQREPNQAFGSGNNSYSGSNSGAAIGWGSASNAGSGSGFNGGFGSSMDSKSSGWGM

With `O=C(O[C@@H]1Cc2c(O)cc(O)cc2O[C@@H]1c1cc(O)c(O)c(O)c1)c1cc(O)c(O)c(O)c1` [EGCG], in data set [1], the “TDP-43-IIPLD aggregates, statistical analysis of dose dependence” value was “disassembled the formed TDP-43 misfolded aggregates in a dose-dependent manner”. In addition, the “assembly of TDP-43-IIPLD proteinaceous nucleating particles” value in data set [1] (50 μM) was “reduce TDP-43 proteinaceous nucleating particles”. Moreover, the TDP-43 species result on TDP-43 polymers is “increased the level of the 130 kD TDP-43 instead of the high-order TDP-43 polymers”. For the same compound, in data set [2], the “correction of TDP-43 dysfunction on mRNA processing” value is “insufficient to correct TDP-43 dysfunction on mRNA processing”.
Consider `OO` [H2O2], for which the cell viability entry in the data set on four p53 strains (four p53 strains challenged with H2O2) was “impaired”. Further, the p53 aggregate formation result in data set [3] (H2O2 treatment) is recorded as “induced p53 aggregate formation”.
With `CC(C)C[C@@H](C=O)NC(=O)[C@H](CC(C)C)NC(=O)[C@H](CC(C)C)NC(=O)OCc1ccccc1` [MG132] (Cbz-Leu-Leu-Leu-aldehyde), in data set [3] (293T cells, MG132), the “form of p53 fibers” value is reported as “converted the three types of p53 fibers into irregular inclusions” and the p53 aggregates result is “significantly increased p53 aggregates”.
As for `NCCCCNCCCN` [spermidine], in the data set with four p53 strains (four p53 strains challenged with spermidine), the cell viability entry is “impaired”.
